In patent US11759496B2, “Compounds and pharmaceutical use thereof in the treatment of cancer” (priority 2016, dated 2023):
Entries after “also recorded” stand apart in the source; their conditions may differ. Like-named read-outs stand apart in the source and are kept apart here. One block for each compound: values may come before it. Non-standard residues stand in square brackets, D forms with d. Residues, ends and D or L forms follow the SMILES beside them. NMeR = CN[C@@H](CCCNC(=N)N)C(=O)O; Nle = CCCC[C@H](N)C(=O)O

Key:
[1] = biological target: T1, CD47 (membrane preparation from MEC-1 cells) (Homo sapiens, UniProt Q08722); experiment: Binding affinity by biolayer interferometry (Octet RED96) on biotinylated MEC-1 cell membrane preparation
T1 construct: MEC-1 cell membrane preparation were biotinylated with the EZ-Link NHS-PEG4-Biotin kit; endogenous in cells; host or cells: MEC-1 cells (membrane preparation)
T1 sequence (Q08722 19-323): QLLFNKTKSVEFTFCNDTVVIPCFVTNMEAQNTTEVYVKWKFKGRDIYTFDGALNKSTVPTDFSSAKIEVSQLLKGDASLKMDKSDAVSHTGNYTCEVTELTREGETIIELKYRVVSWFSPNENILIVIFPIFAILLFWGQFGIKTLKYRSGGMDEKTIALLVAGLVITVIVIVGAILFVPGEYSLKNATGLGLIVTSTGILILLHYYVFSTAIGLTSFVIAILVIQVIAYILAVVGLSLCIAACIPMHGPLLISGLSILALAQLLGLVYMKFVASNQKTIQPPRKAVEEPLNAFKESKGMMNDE
Method: The binding affinities of peptides for a membrane preparation from MEC-1 cells were measured by biolayer interferometry on an Octet RED96 System (Pall FortéBio Corp., Menlo Park, Calif.).
The binding affinities of peptides for a membrane preparation from MEC-1 cells were measured by biolayer interferometry on an Octet RED96 System (Pall FortéBio Corp., Menlo Park, Calif.). This system monitors interference of light reflected from two sources (an internal reflection surface and the liquid/solid interface of a fiber optic sensor) to measure the rate of binding of molecules to the biosensor surface.
MEC-1 cell membrane preparation were biotinylated with the EZ-Link NHS-PEG4-Biotin kit from Thermo-Scientific. Biotinylated membranes were then loaded onto SuperStreptavidin (SSA) biosensors (Pall FortéBio Corp.) at empirically determined concentrations.
In order to highlight the pharmacological properties of these peptides, a systematic SAR study by the development of a binding assay allowing to the assessment of the affinity of the 4N1K analogues to CD47 was initiated. […] An Ala-scan to identify the pharmacophores of 4N1K was implemented.
The binding affinities of peptides for a MEC-1 cells membrane preparation were measured by biolayer interferometry on an Octet RED96 System (Pall FortéBio Corp., Menlo Park, Calif.). This system monitors interference of light reflected from two sources (an internal reflection surface and the liquid/solid interface of a fiber optic sensor) to measure the rate of binding of molecules to the biosensor surface. MEC-1 cells membrane preparation is biotinylated with the EZ-Link NHS-PEG4-Biotin kit from Thermo-Scientific and excess biotin is removed using desalting column from Thermo-Scientific. Biotinylated membranes are then loaded onto SuperStreptavidin (SSA) biosensors (Pall FortéBio Corp.) at empirically determined concentrations. […] Typically, the biosensors were pre-equilibrated in PBS containing either biotinylated membranes or biocytine 100 μg/mL. Biosensors are then equilibrated in assay buffer for 10 min, brought to baseline in assay buffer for 60 sec. and transferred to wells containing peptide in dose-response (association for 120 sec. and dissociation for 300 sec.). The double reference with either membrane-loaded biosensors without any peptide dose-response or biocytine-loaded biosensors with each peptide dose-response were run in parallel for background signal double subtractions. Binding kinetics were calculated using the FortéBio Data Analysis v8.2 software.

[2] = biological target: T2, CD47 (NT.115-labeled membrane) (Homo sapiens, UniProt Q08722); experiment: Binding affinity by microscale thermophoresis (MST), NT.115-labeled membrane; conditions: Table 2; average of at least three independent experiments; NPD = Non Pertinent Data
T2 construct: the concentration of the NT.115-labeled membrane was kept constant; endogenous in cells
T2 sequence (Q08722 19-323): as above
Method: For all experiments the concentration of the NT.115-labeled membrane was kept constant, while the concentrations of the ligand (peptide) was varied. After a short incubation time (5 min) the samples were loaded into MST premium glass capillaries and the MST analysis was performed using the Monolith NT.115.

MEC-1 cells = experiment: MEC-1 cell death (PCD) after 2 h peptide treatment; type: cell-based; conditions: for MEC-1 Cell Death (%) 2 h: Table 2, NPD = Non Pertinent Data
Method: Then the peptides structures were tested via NMR and X-ray. The peptides were also tested for their activity on MEC-1 and their KDs and Retention times on LCMS were determined.

[3] = test system: B-chronic lymphocytic leukemia (CLL) primary cells; conditions: WO 2013/182650, cited from earlier work; for induction of PCD: soluble peptide
[4] = Solubility of the peptides in water / aqueous buffer (NMR, CD samples); type: physicochemical; conditions: aqueous buffer, NMR / CD samples
Method: CD spectra were recorded on a Jasco 815 spectropolarimeter (Jasco Inc., Easton, Md.) over the wavelength range 190-260 nm, at 0.2 nm intervals and 10 nm·min^−1 scan speed. Peptides were dissolved at 50 μM concentration in a 10 mM sodium phosphate buffer at pH 7.4, using 0.1 cm path length quartz cells (Hellma, Mullheim, Germany). CD spectra were deconvoluted with CDFriend program in order to estimate the peptide secondary structure content.
NMR experiments were recorded on a 500 MHz Bruker Avance III spectrometer (Wissembourg, France) equipped with a TCI cryoprobe. NMR samples were prepared in 50 mM sodium succinate buffer, pH 5, using 2 mM peptide concentration. Sodium 2,2-dimethyl-2-silapentane-d6-5-sulfonate (Sigma Aldrich) was added at 0.1 mM concentration for chemical shift calibration and measurement of the solubilized peptide concentration. NMR experiments were processed with TOPSPIN 2.1 software (Bruker) and spectra were analyzed with Sparky program. ^1H, ^13C and ^15N resonances were assigned using 2D ^1H-^1H TOCSY (DIPSI2 isotropic scheme of 70 ms duration), 2D ^1H-^1H ROESY (300 ms mixing time), 2D ^1H-^13C HSQC, 2D ^1H-^15N HSQC, and 2D ^1H-^13C HMBC spectra. The complete ^1H, ^13C and ^15N NMR assignments of peptides 4N1K, PKT2, PKHB1 and 4NGG are provided in Tables S1-S4 (supporting information). […] The chemical shift deviations of Ha protons and Cα carbons were calculated as the differences between observed chemical shifts and random coil values reported in water. The conformational analysis of thrombospondin-1 was carried out on the crystal structure of a C-terminal fragment of human thrombospondin-1 using Pymol (Schrödinger) and Procheck programs. Predictions of NMR chemical shifts on the X-ray structure were carried out using SHIFTX2 program.

OSU cells = experiment: Deaths on OSU cells treated with PKT16 or PKT16-FF (FIG. 4); type: cell-based; conditions: 6 hours, control 9.5%
Method: FIG. 4: compares deaths on OSU cells treated with PKT16 or PKT16-FF. For PKT16, it can be seen that the reported deaths are of 11.1, 17.9 and 52.7% for concentrations of 25 μM, 50 μM and 100 μM respectively. For PKT16-FF, it can be seen that the reported deaths are of 16.6, 38.3 and 82.4% for concentrations of 25 μM, 50 μM and 100 μM respectively. The control test provided 9.5% death of the cells.
It was synthesized using common solide phase peptide synthesis technics as mentioned above.

[5] = test system: B CLL cells that have the C481S mutation BTK gene; experiment: Sensitivity of ibrutinib-resistant B CLL cells to PKT16; type: cell-based; conditions: resistance to Ibrutinib
CLL cells = experiment: Cell death (Annexin-V and PI co-positivity) in CLL cells (FIG. 2); type: cell-based; conditions: 6 h
Method: FIG. 2A: cell death, measured as Annexin-V and PI co-positivity, was assessed leukemic cells treated 6 h with different concentrations of PKT16 or PKHB1. The data in the plot are the mean±s.d. (n=5). FIG. 2B: cell death induced by PKT16 (100 μM, 6 h) was measured in B-cells from twenty healthy donors and forty CLL patients. The percentages refer to the mean of the Annexin-V/PI-positive staining

[6] = Table 2, average of at least three independent experiments, NPD = Non Pertinent Data

- Kd (μM) (OR) [1, 6]: NPD
- Kd (μM) (MST) [2]: NPD
SMILES: CSCC[C@H](NC(=O)CNC(=O)CNC(=O)[C@H](Cc1ccc(O)cc1)NC(=O)[C@H](Cc1ccccc1)NC(=O)[C@H](CCCNC(=N)N)NC(=O)[C@@H](N)CCCCN)C(=O)N[C@@H](Cc1c[nH]c2ccccc12)C(=O)N[C@@H](CCCCN)C(=O)N[C@@H](CCCCN)C(=O)O [4NGG, reference compound] (H-KRFYGGMWKK-OH)
- MEC-1 Cell Death (%) 2 h (MEC-1 cells): 2%
- induction of PCD [3]: unable to induce PCD

- Kd ([1]; Table 2, average of at least three independent experiments, NPD = Non Pertinent Data, read-out: Kd (μM) (OR)): 19 ± 1.6 µM
- Kd ([1]; Table 3, average of two or more measurements, NPD = Non Pertinent Data, read-out: Kd): 19 ± 1.6 µM
SMILES: CSCC[C@H](NC(=O)[C@@H](NC(=O)[C@@H](NC(=O)[C@H](Cc1ccc(O)cc1)NC(=O)[C@H](Cc1ccccc1)NC(=O)[C@H](CCCNC(=N)N)NC(=O)[C@@H](N)CCCCN)C(C)C)C(C)C)C(=O)N[C@@H](Cc1c[nH]c2ccccc12)C(=O)N[C@@H](CCCCN)C(=O)N[C@@H](CCCCN)C(=O)O [4N1K, reference compound]
- MEC-1 Cell Death (%) 2 h (MEC-1 cells): 23%
- MEC-1 Cell Death (%) 2 h, [peptides] = 200 μM (MEC-1 cells; Table 3, 200 μM peptide): 23%
- selective elimination of leukemic B-cells versus healthy B-lymphocytes [3]: specifically eliminates leukemic B-cells
- induction of PCD [3]: induces caspase-independent PCD

- Kd (μM) (OR) [1, 6]: NPD
SMILES: CSCC[C@H](NC(=O)[C@@H](NC(=O)[C@@H](NC(=O)[C@H](Cc1ccc(O)cc1)NC(=O)[C@H](Cc1ccccc1)NC(=O)[C@@H](N)CCCNC(=N)N)C(C)C)C(C)C)C(=O)N[C@@H](Cc1c[nH]c2ccccc12)C(=O)N[C@@H](CCCCN)C(=O)O [4N1, reference compound]
- MEC-1 Cell Death (%) 2 h (MEC-1 cells): 13%
- solubility of peptide (in words) [4]: least soluble; also recorded: poorly soluble

- Kd ([1]; Table 5, apparent Kd, biolayer interferometry, read-out: Kd (BI)): 74 µM
SMILES: CCCC[C@H](NC(=O)[C@@H](NC(=O)[C@@H](NC(=O)[C@H](Cc1ccc(O)cc1)NC(=O)[C@H](Cc1ccccc1)NC(=O)[C@H](CCCNC(=N)N)N(C)C(=O)[C@H](N)CCCCN)C(C)C)C(C)C)C(=O)N[C@@H](Cc1c[nH]c2ccccc12)C(=O)N[C@@H](CCCCN)C(=O)N[C@H](CCCCN)C(=O)O [PKT16, H-(D)K ψ(CONMe)R F Y V V X W K (D)K-OH] (H-[dK][NMeR]FYVV[Nle]WK[dK]-OH)
- Cell Death (MEC-1, 2 h) (MEC-1 cells; Table 4): 68%
- deaths on OSU cells (OSU cells; 25 μM): 11.1%
- deaths on OSU cells (OSU cells; 50 μM): 17.9%
- deaths on OSU cells (OSU cells; 100 μM): 52.7%
- sensitivity to treatment with PKT16 [5]: sensitive
- PCD activity relative to PKHB1 (CLL cells): improved PCD activity

SMILES: CSCC[C@H](NC(=O)[C@@H](NC(=O)[C@@H](NC(=O)[C@H](Cc1ccc(O)cc1)NC(=O)[C@H](Cc1ccccc1)NC(=O)[C@H](CCCNC(=N)N)NC(C)=O)C(C)C)C(C)C)C(=O)N[C@@H](Cc1c[nH]c2ccccc12)C(=O)N[C@@H](CCCCN)C(N)=O [compound 1]
- MEC-1 Cell Death (%) 2 h (MEC-1 cells): 27%
- solubility of peptide (in words) ([4]; listed as PKT1): least soluble; also recorded: poorly soluble
